Results published in patent publication US8592451B2, “Reversible nondepolarizing neuromuscular blockade agents and methods for their use” (Cornell University, priority 2009, dated 2013).

Assay: L-cysteine adduction kinetics in vitro (HPLC)
Assay type: physicochemical
Conditions: pH 7.4, 37° C.; for NMBA peak area / [NMBA] remaining / ln* = ln (([NMBA]t[L-cysteine]t=0)/([NMBA]t=0[L-cysteine]t)): CW 011 1000 μg/mL + 1.05 equiv. L-cysteine
Experimental: In a second experiment, to evaluate degradation in the presence of L-cysteine, buffered solutions (pH 7.4) of gantacurium, CW 002 or CW 011 were freshly prepared at 37° C. to give experimental concentrations of 1000 μg/mL (CW 002 and CW 011) and 200 μg/mL (gantacurium), after addition to and mixing with a 5% Molar excess of L-cysteine at time=0.
The concentration of neuromuscular blocking agent/parent compound remaining at specified time points after mixing was determined by high performance liquid chromatography. The concentration of blocking agent at each time point was determined from a separately prepared reaction mixture, due to the rapid rate of L-cysteine adduction. The reaction rate constant for the second order reaction of each neuromuscular blockade agent (NMBA) with L-cysteine was derived by plotting the natural log of ([NMBA]t[L-cysteine]t=0/[NMBA]t=0[L-cysteine]t) vs. time.
Concentrations selected were 200, 100 and 50 μg/ml which are approximately proportional to the relative potencies (ED 95) of gantacurium, CW 002 and CW 011 respectively. A degradation (adduction) pathway in the presence of L-cysteine for each of the three compounds was proposed.
The reaction of L-cysteine with CW 002, CW 011 or gantacurium is first order in the case of both the neuromuscular blockade agent (NMBA) and L-cysteine, represented by the rate equation (1). d[Adduct]/dt=−d[NMBA]/dt=ka[NMBA][L-cysteine] (1)
Calculation of the L-cysteine adduction half time requires experimental derivation of the reaction rate constant, ka, for each compound. The initial concentrations of NMBA and L-cysteine are unequal in the experiments conducted for this study, thus integration of equation 1 gives equation 2, where [NMBA]0 is the NMBA concentration at time equals 0 and [NMBA]t is the NMBA concentration at a time point, t.
[formula] A plot of the ln(([NMBA]t [L-cysteine]0)/([NMBA]0 [L-cysteine]t)) versus time (ln* vs. t) gives a line, with slope equal to ka([NMBA]0−[L-cysteine]0). An adduction reaction half time can be calculated by solving for ka to be used in equation 3.
NMBA standard solutions were prepared by a method similar to that used to prepare hydrolysis standards. The standards were prepared at 1000 μg/mL for CW 002 and CW 011 and 200 μg/mL for gantacurium.
Solutions used for determination of NMBA concentration at the reported times for CW 002 and CW 011 were prepared as follows: L-cysteine hydrochloride monohydrate was charged to a volumetric flask in de-ionized water. A 5 mL aliquot of the L-cysteine solution (1.05 equiv. L-cysteine with respect to NMBA) was transferred by volumetric pipette to a flask held at 37.0±0.3° C. CW 002 or CW 011 was then charged to a separate 25 mL volumetric flask and diluted to volume with pH 7.4 phosphate buffer at 37.0° C. The NMBA solution was then immediately transferred to the flask containing L-cysteine to give an initial NMBA concentration of 1000 μg/mL. Solutions used for determination of gantacurium concentration versus time were prepared in a similar manner to give an initial concentration of 200 μg/mL. T=0 was defined as the time of addition of NMBA solution to L-cysteine solution. The times listed in the results table show the point of HPLC sample injection following mixing of L-cysteine and NMBA at time=0 (Table 1, below).
Rate constants were calculated using equation (3) and the slope of the trend line derived from each data set. The strong linear correlation of the data within each set supports the use of second order kinetics for analysis of the cysteine adduction reactions.
Reaction half times were calculated using equation 4 and the experimentally determined rate constants. The initial NMBA concentrations were chosen to reflect the relative potency observed in vivo.

SMILES: COc1ccc(C[C@@H]2c3cc(OC)c(OC)cc3CC[N@@+]2(C)CCCOC(=O)/C=C\C(=O)OCCC[N@+]2(C)CCc3cc(OC)c(OC)cc3[C@H]2Cc2cc(OC)c(OC)c(OC)c2)cc1OC [CW 011]
- NMBA peak area (Trial 1, 123 Sec): 2587.0 mAU's
- [NMBA] remaining (Trial 1, 123 Sec): 228 µM
- ln* = ln (([NMBA]t[L-cysteine]t=0)/([NMBA]t=0[L-cysteine]t)) (Trial 1, 123 Sec): −0.248
- NMBA peak area (Trial 2, 132 Sec): 2500.5 mAU's
- [NMBA] remaining (Trial 2, 132 Sec): 221 µM
- ln* = ln (([NMBA]t[L-cysteine]t=0)/([NMBA]t=0[L-cysteine]t)) (Trial 2, 132 Sec): −0.256
- NMBA peak area (Trial 3, 143 Sec): 2293.0 mAU's
- [NMBA] remaining (Trial 3, 143 Sec): 202 µM
- ln* = ln (([NMBA]t[L-cysteine]t=0)/([NMBA]t=0[L-cysteine]t)) (Trial 3, 143 Sec): −0.284
- NMBA peak area (Trial 4, 182 Sec): 1765.4 mAU's
- [NMBA] remaining (Trial 4, 182 Sec): 155 µM
- ln* = ln (([NMBA]t[L-cysteine]t=0)/([NMBA]t=0[L-cysteine]t)) (Trial 4, 182 Sec): −0.378
- Plot Slope (ln* vs. time) (L-cysteine adduction, data of Table 1): −0.0023
- ka, second order rate constant of L-cysteine adduction: 24.7 M⁻¹ s⁻¹
- half-life at 50 μg/ml (pH 7.4 phosphate buffer with L-cysteine, calculated at [NMBA]0 0.0000493 M (50 μg/ml), read-out: L-cysteine adduction reaction half time t1/2): 13.7 min
